In patent US10018911B2, “Chemically amplified resist material and resist pattern-forming method” (JSR CORPORATION, priority 2015, dated 2018):

Assay: Absorbance measurement of component (b) and derived sensitizing agent, 0.0001% by mass cyclohexane solution
Assay type: physicochemical
Experimental: The component (b) and the sensitizing agent derived from the component (b) are shown together in Table 2. With respect to each of the components (b) and the sensitizing agents derived from the components (b), a 0.0001% by mass cyclohexane solution thereof was prepared. The absorbance of the solution prepared thus was measured using cyclohexane as a reference solvent and a spectrophotometer (“V-670” available from JASCO Corporation).
The absorbance was evaluated to be: “transparent” in a case where the measurement value of the absorbance was less than 0.01 over the entire wavelength range of no less than 300 nm and no greater than 450 nm; and “absorbing” in a case where the measurement value of the absorbance was no less than 0.01 at at least one wavelength within the entire wavelength range of no less than 300 nm and no greater than 450 nm.

With `COc1ccc(C(O)c2ccc(OC)cc2)cc1` [Example B-1, bis(4-methoxyphenyl)methanol] as the compound, how does the “Absorbance (300-450 nm) of (b) component” value read?
The value was “transparent (the measurement value of the absorbance was less than 0.01 over the entire wavelength range of no less than 300 nm and no greater than 450 nm)”.

Which “Absorbance (300-450 nm) of (b) component” value does the source give for `COc1ccc(C(OC)(OC)c2ccc(OC)cc2)cc1` [Example B-2] here?
Its value is “transparent (the measurement value of the absorbance was less than 0.01 over the entire wavelength range of no less than 300 nm and no greater than 450 nm)”.
